Active and inactive are the calls of the source. The rule behind the calls is not given here.
Columns and labels:
[1] = target: Histamine H2 receptor (Homo sapiens) (UniProt P25021); experiment: Displacement of [125I]aminopotentidine from full-length recombinant human H2 receptor expressed in CHOK1 cells at 10 uM measured after 120 mins by scintillation counting method relative to control; type: cell-based
[2] = target: Glutamate NMDA receptor (Rattus norvegicus) (UniProt P35439+Q00959+Q00960+Q00961+Q62645+Q8VHN2+Q9R1M7); experiment: Displacement of [3H]CGP-39653 from NMDA receptor in Wistar rat cerebral cortex at 10 uM measured after 20 mins by scintillation counting method relative to control
COLO 320DM = experiment: Antitumor activity against human COLO320DM cells xenografted in mouse assessed as tumor growth inhibition at 300 mg/kg, ip administered twice daily for 11 days relative to control; type: functional; details: 264 h, read-out: TGI
[3] = Cmax in ICR mouse at 50 mg/kg, ip; type: ADME, organism-based; set-up: dose 50 mg/kg, route intraperitoneal; details: in vivo
[4] = target: Tyrosine-protein kinase Lck (Homo sapiens) (UniProt P06239); experiment: Inhibition of full-length recombinant human LCK expressed in insect cells at 10 uM using poly(Glu:Tyr) as substrate preincubated for 15 mins followed by substrate addition and measured after 30 mins in presence of [gamma32P]ATP by scintillation counting method relative to control
Sequence of Tyrosine-protein kinase Lck (Homo sapiens) (P06239 2-509 limits assumed): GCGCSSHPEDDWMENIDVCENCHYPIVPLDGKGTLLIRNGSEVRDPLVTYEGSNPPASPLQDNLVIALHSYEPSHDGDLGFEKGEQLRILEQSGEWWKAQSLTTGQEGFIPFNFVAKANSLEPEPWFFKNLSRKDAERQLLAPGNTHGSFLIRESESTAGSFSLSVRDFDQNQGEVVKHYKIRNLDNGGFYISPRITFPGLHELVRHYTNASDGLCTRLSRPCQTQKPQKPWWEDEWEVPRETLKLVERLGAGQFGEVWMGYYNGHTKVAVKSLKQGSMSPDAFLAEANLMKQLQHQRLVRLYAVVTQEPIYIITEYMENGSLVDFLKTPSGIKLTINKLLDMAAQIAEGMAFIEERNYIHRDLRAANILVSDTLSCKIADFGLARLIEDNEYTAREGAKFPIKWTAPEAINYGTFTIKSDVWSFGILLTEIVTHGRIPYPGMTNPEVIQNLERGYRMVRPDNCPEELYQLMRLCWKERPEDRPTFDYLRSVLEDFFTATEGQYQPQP

[5] = target: Acetylcholinesterase (Homo sapiens) (UniProt P22303); experiment: Inhibition of human recombinant full-length ACES expressed in HEK293 cells at 10 uM using acetylthiocholine iodide as substrate preincubated for 15 mins followed by substrate addition and measured after 20 mins by DTNB reagent based spectrophotometric method relative to control
Sequence of Acetylcholinesterase (Homo sapiens) (P22303 whole entry): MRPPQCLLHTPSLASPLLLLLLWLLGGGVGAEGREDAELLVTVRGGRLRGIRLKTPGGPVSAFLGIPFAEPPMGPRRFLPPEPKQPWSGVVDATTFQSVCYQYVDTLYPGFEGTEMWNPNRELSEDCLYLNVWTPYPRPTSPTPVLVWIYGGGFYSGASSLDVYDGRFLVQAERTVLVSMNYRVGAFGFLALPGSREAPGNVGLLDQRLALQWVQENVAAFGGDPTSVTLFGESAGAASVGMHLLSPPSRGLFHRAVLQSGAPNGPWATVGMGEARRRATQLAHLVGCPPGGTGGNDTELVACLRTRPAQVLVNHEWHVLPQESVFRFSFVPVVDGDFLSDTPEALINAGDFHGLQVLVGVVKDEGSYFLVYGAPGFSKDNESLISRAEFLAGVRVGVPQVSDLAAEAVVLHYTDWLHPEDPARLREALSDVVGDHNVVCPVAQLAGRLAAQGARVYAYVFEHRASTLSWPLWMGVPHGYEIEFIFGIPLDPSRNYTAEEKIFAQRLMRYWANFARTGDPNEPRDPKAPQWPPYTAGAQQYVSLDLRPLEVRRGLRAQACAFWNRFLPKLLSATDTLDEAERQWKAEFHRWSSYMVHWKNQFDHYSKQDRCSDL

[6] = target: Sodium-dependent dopamine transporter (Homo sapiens) (UniProt Q01959); experiment: Displacement of [125I]RTI-55 from full-length recombinant human DAT receptor expressed in CHOS cells at 10 uM measured after 3 hrs by scintillation counting method relative to control; type: cell-based
Sequence of Sodium-dependent dopamine transporter (Homo sapiens) (Q01959 whole entry): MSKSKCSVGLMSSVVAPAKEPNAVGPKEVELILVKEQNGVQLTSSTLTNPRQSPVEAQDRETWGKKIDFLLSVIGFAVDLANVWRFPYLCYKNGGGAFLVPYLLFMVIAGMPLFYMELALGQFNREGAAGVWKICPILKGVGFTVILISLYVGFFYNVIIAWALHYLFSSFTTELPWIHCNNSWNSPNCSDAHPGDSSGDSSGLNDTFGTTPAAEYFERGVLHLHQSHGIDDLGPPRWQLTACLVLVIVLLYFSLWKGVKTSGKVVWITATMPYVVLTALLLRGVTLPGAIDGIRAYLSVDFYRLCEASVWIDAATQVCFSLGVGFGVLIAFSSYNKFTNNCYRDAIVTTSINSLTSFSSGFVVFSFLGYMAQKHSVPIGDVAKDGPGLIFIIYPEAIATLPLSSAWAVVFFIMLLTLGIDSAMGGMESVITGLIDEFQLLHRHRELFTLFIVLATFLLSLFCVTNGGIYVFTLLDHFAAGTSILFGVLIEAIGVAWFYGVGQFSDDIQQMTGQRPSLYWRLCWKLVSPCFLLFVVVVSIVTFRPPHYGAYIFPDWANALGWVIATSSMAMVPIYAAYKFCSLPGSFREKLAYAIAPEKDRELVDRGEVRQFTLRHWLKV

[7] = target: 5-hydroxytryptamine receptor 2B (Homo sapiens) (UniProt P41595); experiment: Displacement of [3H]LSD from full-length recombinant human 5HT2B receptor expressed in CHOK1 cells at 10 uM measured after 60 mins by scintillation counting method relative to control; type: cell-based
Sequence of 5-hydroxytryptamine receptor 2B (Homo sapiens) (P41595 whole entry): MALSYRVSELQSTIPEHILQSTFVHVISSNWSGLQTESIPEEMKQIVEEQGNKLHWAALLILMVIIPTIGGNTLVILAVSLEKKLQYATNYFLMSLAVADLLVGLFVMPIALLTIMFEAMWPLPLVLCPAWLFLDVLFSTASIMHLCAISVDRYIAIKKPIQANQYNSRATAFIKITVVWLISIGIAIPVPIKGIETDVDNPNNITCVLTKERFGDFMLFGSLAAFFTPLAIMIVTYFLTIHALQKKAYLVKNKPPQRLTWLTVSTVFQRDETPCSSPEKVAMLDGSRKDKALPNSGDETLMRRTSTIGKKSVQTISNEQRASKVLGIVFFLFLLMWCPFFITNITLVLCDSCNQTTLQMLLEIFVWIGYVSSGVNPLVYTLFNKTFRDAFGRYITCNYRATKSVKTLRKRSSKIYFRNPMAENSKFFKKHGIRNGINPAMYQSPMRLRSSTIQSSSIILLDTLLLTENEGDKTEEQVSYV

[8] = Toxicity in mouse xenografted with human COLO320DM cells assessed as body weight loss at 150 mg/kg, ip administered twice daily for 11 days; type: organism-based; details: in vivo, 264 h
Homo sapiens [9] = species on record: Homo sapiens; experiment: Effect on hippo signaling protein in human COLO320DM cells assessed as change in CTGF expression at 0.033 to 1 uM measured after 48 hrs by RT-PCR analysis; type: cell-based
Homo sapiens [10] = species on record: Homo sapiens; experiment: Effect on hippo signaling protein in human COLO320DM cells assessed as change in CYR61 expression at 0.033 to 1 uM measured after 48 hrs by RT-PCR analysis; type: cell-based
[11] = target: Alpha-2A adrenergic receptor (Homo sapiens) (UniProt P08913); experiment: Displacement of [3H]rauwolscine from full-length recombinant human alpha2A receptor expressed in CHOK1 cells at 10 uM measured after 60 mins by scintillation counting method relative to control; type: cell-based
Sequence of Alpha-2A adrenergic receptor (Homo sapiens) (P08913 whole entry): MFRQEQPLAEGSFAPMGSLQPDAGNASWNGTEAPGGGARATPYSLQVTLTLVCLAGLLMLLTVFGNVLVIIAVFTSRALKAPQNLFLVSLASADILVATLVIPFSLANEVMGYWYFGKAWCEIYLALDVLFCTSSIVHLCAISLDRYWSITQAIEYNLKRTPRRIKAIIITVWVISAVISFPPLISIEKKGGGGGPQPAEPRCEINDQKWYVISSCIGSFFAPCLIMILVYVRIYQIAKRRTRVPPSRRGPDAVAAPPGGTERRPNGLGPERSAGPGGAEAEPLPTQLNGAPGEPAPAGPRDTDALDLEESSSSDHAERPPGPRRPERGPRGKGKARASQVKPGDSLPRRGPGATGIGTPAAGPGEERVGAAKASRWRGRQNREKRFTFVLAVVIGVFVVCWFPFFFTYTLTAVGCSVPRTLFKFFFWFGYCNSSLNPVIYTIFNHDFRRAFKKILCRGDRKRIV

[12] = Toxicity in mouse xenografted with human COLO320DM cells assessed as body weight loss at 300 mg/kg, ip administered twice daily for 11 days; type: organism-based; details: in vivo, 264 h
[13] = target: Muscarinic acetylcholine receptor M1 (Homo sapiens) (UniProt P11229); experiment: Displacement of [3H]N-Methylscopolamine from full-length recombinant human M1 receptor expressed in CHOK1 cells at 10 uM measured after 120 mins by scintillation counting method relative to control; type: cell-based
Sequence of Muscarinic acetylcholine receptor M1 (Homo sapiens) (P11229 whole entry): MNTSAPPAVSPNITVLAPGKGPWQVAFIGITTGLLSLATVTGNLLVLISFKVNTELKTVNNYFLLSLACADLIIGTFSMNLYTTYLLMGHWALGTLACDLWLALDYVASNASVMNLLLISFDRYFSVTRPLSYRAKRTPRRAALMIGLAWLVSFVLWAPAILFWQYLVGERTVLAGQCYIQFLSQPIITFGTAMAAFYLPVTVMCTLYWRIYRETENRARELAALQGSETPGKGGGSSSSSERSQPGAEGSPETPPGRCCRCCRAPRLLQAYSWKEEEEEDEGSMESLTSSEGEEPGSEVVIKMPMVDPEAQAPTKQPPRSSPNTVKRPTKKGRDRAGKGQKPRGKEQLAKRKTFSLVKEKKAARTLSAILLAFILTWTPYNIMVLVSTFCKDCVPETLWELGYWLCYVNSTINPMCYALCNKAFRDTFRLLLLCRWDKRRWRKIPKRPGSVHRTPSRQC

[14] = target: Neuronal acetylcholine receptor; alpha4/beta2 (Homo sapiens) (UniProt P17787+P43681); experiment: Displacement of [3H]cytisine from full-length recombinant human alpha4/beta2 nACHR expressed in human SH-SY5Y cells at 10 uM measured after 120 mins by scintillation counting method relative to control; type: cell-based
[15] = Half life in ICR mouse at 50 mg/kg, ip; type: ADME, organism-based; details: in vivo
MAOA = MAOA (Homo sapiens, UniProt P21397); experiment: Inhibition of full-length recombinant human MAOA expressed in insect cells at 10 uM using kynuramine as substrate preincubated for 15 mins followed by substrate addition and measured after 60 mins by spectrofluorimetric method relative to control; details: probe kynuramine
Sequence of MAOA (P21397 whole entry): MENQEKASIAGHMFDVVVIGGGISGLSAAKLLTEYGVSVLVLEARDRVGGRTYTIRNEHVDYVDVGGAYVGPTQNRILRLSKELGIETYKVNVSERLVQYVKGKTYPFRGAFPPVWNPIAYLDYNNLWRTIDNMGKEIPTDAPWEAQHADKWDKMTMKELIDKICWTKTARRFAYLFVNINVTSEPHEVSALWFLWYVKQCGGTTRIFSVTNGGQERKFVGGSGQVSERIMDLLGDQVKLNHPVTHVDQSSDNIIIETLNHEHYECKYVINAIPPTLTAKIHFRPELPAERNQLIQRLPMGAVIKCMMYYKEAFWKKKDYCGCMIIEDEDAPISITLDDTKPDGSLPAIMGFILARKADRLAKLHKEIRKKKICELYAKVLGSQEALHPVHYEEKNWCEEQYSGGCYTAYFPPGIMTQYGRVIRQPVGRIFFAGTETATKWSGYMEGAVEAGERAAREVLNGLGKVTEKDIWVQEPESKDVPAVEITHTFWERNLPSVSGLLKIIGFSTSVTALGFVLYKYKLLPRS

[16] = Permeability of the compound by PAMPA; type: ADME; details: read-out: permeability

Sequence of Histamine H2 receptor (Homo sapiens) (P25021 whole entry): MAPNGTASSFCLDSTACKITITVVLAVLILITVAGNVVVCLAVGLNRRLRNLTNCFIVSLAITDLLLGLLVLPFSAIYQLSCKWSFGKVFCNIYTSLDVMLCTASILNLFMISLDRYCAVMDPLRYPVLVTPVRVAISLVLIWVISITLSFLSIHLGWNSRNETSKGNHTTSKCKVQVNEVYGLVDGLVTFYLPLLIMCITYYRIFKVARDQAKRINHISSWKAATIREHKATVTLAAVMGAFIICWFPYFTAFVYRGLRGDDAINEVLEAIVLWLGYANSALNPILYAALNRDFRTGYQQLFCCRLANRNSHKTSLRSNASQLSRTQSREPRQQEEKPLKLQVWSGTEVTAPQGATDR

Q: Which results are given for `O=c1[nH]c(N2CCC3(CC2)CN(CCO)c2cc(F)cc(F)c23)nc2c1CCCC2`?
A: inhibition [1]: > 20%; inhibition [2]: > 20%; inhibition in vivo at 300 mg/kg (COLO 320DM): 51.9%; Cmax [3]: 199 µM; inhibition [4]: > 20%; inhibition [5]: > 20%; inhibition [6]: > 20%; inhibition [7]: > 20%; Activity [8]: Non-Toxic; Activity (Homo sapiens [9]): inactive; Activity (Homo sapiens [10]): inactive; inhibition [11]: > 20%; Activity [12]: Toxic; inhibition [13]: > 20%; inhibition [14]: > 20%; half-life [15]: 2.8 h; inhibition at 1 h, 10 µM (MAOA): > 20%

Q: With `COc1ccccc1N1CCN(c2nc3c(c(=O)[nH]2)CCCC3)CC1` as the molecule, how does the Papp [16] read?
A: The Papp was 0.34 ×10⁻⁶ cm/s.

— ChEMBL document CHEMBL4387706, “Discovery of Novel Spiroindoline Derivatives as Selective Tankyrase Inhibitors” (J Med Chem, 2019)
